Experimental data as given in US9884032B2, “Esters of short chains fatty acids for use in the treatment of immunogenic disorders” (priority 2012, dated 2018).
Values joined by “and” are separate entries in the source; they are usually repeats but may differ in a detail not shown here. Equal entries are not always repeated. “Also recorded” adds a separate entry of the source. Where two headings read alike, the source gives them in different places.

Experiments:
Type in all cases: in vivo, BALB/c mice
airway eosinophilia = experiment: Propionate intranasal efficacy study, HDM asthma: BAL differential cell counts (Example 3); settings: 100 mg/kg intranasally; all treatment regimes (pretreatment; pretreatment and priming; pretreatment, priming and challenge); day 14
Description: On days 0, 2, 4, 7, 8 and 11 mice were exposed to 15 ug of house dust mite extract (Greer) intranasally. On day 14, all mice were sacrificed and bronchoalveolar lavage (BAL) was performed with sterile PBS. The total number of macrophages (FIG. 3B), eosinophils (FIG. 3A), lymphocytes (FIG. 3C) and neutrophils (FIG. 3D) was determined by total and differential cell counts using standard morphological and cytochemical techniques.
BAL was performed by flushing the airways three times with 1 ml PBS. Total BAL cells were counted using a Coulter Counter (IG Instruments) and spun onto glass slides using a Cytospin 2 (Shandon Southern Products, Ltd.). Cells were then stained with Diff Quick staining set (Siemens-Dade Behring). Percentages of eosinophils, macrophages, lymphocytes and neutrophils were determined microscopically using standard morphological and cytochemical criteria.
Female BALB/c mice were purchased from Charles River Laboratories at 8 weeks of age. […] On days 0, 2, 4, 7, 8 and 11 mice were exposed to 15 μg of house dust mite extract (Greer) per nasal. On day 14, all mice were sacrificed and bronchoalveolar lavage (BAL) was performed with sterile PBS. The total number of macrophages, eosinophils, lymphocytes and neutrophils was determined by total and differential cell counts using standard morphological and cytochemical techniques. […]

[1] = tested on: metapneumonia virus A1 6621 (MPV); settings: 100 mg/kg intranasally day -1 and 0; day 5 post infection
[2] = tested on: Influenza A strain HK/PR8; settings: for delta Ct / flu/β-actin: lungs day 5, individual mice; for flu/β-actin: Experiment 3
[3] = tested on: Influenza virus strain PR8; experiment: Propionate intranasal efficacy study, influenza: lung viral load by PCR (Example 1); settings: 100 mg/kg intranasally on days -3, -1, 0; day 5 post infection; compared to saline
Description: On day 0 all mice were infected with Influenza virus strain PR8. On day 5 post infection, mice were sacrificed, lungs isolated and viral load determined by PCR.
Female BALB/c mice were purchased from Charles River Laboratories at 8 weeks of age. […] On day 0 mice were infected with 100 PFU of Influenza strain PR8 in 30 μl of PBS solution. On day 5 post infection, mice were sacrificed and lungs were removed and placed in Tri reagent solution. Total RNA was purified from cells obtained from whole lung tissue using Tri reagent. Real time PCR was carried out according to manufacturers instructions using the quantifast SYBR green RT-PCR kit (Qiagen). The following primers Influenza matrix protein primers were used: forward 5′-[…]-3′, reverse 5′-[…]-3′. B-actin primers forward 5′-[…]-3′, reverse 5′-[…]-3′ as previously described van Elden, L. J., M. Nijhuis, P. Schipper, R. Schuurman, A. M. van Loon. 2001. Simultaneous detection of influenza viruses A and B using real-time quantitative PCR. J. Clin. Microbiol. 39: 196-200.

CCC(=O)[O-].[Na+] [sodium propionate]
airway eosinophilia (BAL eosinophils) (airway eosinophilia): statistically significant reductions | protection against MPV infection [1]: exhibits efficacy in the protection against MPV infection | Flu titer at 1 mg/kg compared with the other doses ([2]; Experiment 1, doses 100, 10, 1 mg/kg i.n.): lowest Flu titers | delta Ct ([2]; Experiment 2, 0.01 mg/kg i.n. day 0, listed as NA Propionate, 0.01 mg/kg): 0.05776 and 0.1427 and 0.4687 and 0.01899 and 0.2875 | delta Ct ([2]; Experiment 2, 0.1 mg/kg i.n. day 0, listed as NA Propionate, 0.1 mg/kg): 0.3178 and 0.08239 and 0.2101 and 0.01484 and 0.2815 | delta Ct ([2]; Experiment 2, 1 mg/kg i.n. day 0, listed as NA Propionate, 1 mg/kg): 0.01819 and 0.02787 and 0.08699 and 0.009033 and 0.07967 | delta Ct ([2]; Experiment 2, 10 mg/kg i.n. day 0, listed as Na Propionate, 10 mg/kg): 0.1146 and 0.03546 and 0.05123 and 0.1345 | delta Ct ([2]; Experiment 2, 100 mg/kg i.n. day 0, listed as Na Propionate, 100 mg/kg): 0.02338 and 0.01681 and 0.2248 and 0.2282 | efficacy against influenza infection, dose titration ([2]; Experiment 2, dose of 0.1 mg/kg or less i.n.): lack of efficacy | Flu titer / efficacy at 1 mg/kg compared with the other doses ([2]; Experiment 2, doses 100 to 0.01 mg/kg i.n.): highest efficacy; also recorded: lowest Flu titer | efficacy against influenza infection, dose titration ([2]; Experiment 2, from 100 mg/kg to 1 mg/kg i.n.): trend towards efficacy | flu/β-actin ([2]; 100 mg/kg i.n. Day 0, listed as Na Propionate, 100 mg/kg): 0.154 and 0.244 and 0.334 and 0.303 | flu/β-actin ([2]; 100 mg/kg i.n. Day +1, listed as Na Propionate, 100 mg/kg): 0.176 and 0.277 and 0.312 and 0.217 | optimal dose, intranasal ([2]; mouse, in vivo): 1 mg/kg | viral load in the lungs [3]: markedly lower viral load
